Data from US20230048576A1, “COMPOUNDS FOR THE TREATMENT OF NEUROPATHIC PAIN” (City of Hope, priority 2019, published 2023).
Where “and” joins values, the source holds several entries; their conditions need not be identical. Equal entries are not always repeated. Marks after values point to notes of the source that are not given here.

Tests used:
[1] = Survival of animals during the study; assay type: in vivo, rat; settings: 150 mg/kg IP, Group 2
Protocol: (§1) Neuropathic pain was induced by intraperitoneal administration of Taxol at a dose level of 6 mg/kg on study days 0-6 and 12 mg/kg on study days 7-12. Following injection of Taxol animals experienced pain as was assessed using the von Frey test. The development of neuropathic pain was confirmed by measuring mechanical allodynia (Von Frey test) on study day 13 (for inclusion) and on study day 14 (1 hour and 2 hour post dosing) and 24 hour post first dosing.

[2] = test system: CNS activity (motor coordination and balance); assay: Rotarod test; assay type: in vivo, rats; settings: 150 mg/kg i.p.; 1 and 6 hr post-dosing
Protocol: The objective of this study was to evaluate the potential CNS effects of LR-90 and gabapentin (the latter a widely used drug for neuropathic pain) in rats. LR-90 in 20% HPβCD formulation was delivered at a dose of 50 or 100 mg/kg by oral gavage and gabapentin (150 mg/kg) was delivered by i.p. injection. The rotarod test was employed to measure the CNS activity (motor coordination and balance) and the performance time was recorded at 0 (baseline), 1, 6 and 24 hr post-dose.

[3] = test system: Taxol-induced neuropathic pain; assay: Von Frey test (mechanical allodynia) in Taxol induced model of neuropathic pain; assay type: in vivo, rat; settings: Group 2; for mean Von Frey force required for withdrawal: 150 mg/kg IP
Protocol: as §1
All data are presented as means±SEM. Each treatment group was compared to the Vehicle group using Two way ANOVA (for VF) followed by Tukey post-test (GraphPad). Vehicle group is compared to naïve group using T-test. A p value<0.05 is considered to represent a significant difference.
The response to tactile allodynia was evaluated using the Von Frey apparatus (Touch Test®). The rat was placed in an enclosure and positioned on a metal mesh surface, but allowed to move freely. A set of dull monofilaments provide an increasing force was applied on the animal plantar surface of the paw. The lowest force requires for animal paw withdrawal was recorded. Low force values recorded in this test indicate a painful state.

[4] = Mean group body weight in Taxol model; assay type: in vivo, rat; settings: 150 mg/kg IP, Group 2
Protocol: as §1

Structure (SMILES): NCC1(CC(=O)O)CCCCC1 [Gabapentin, reference compound]
- Survived Animals in % ([1]; Study Day 13): 100%
- Survived Animals in % ([1]; Study Day 14): 100%
- Survived Animals in % ([1]; Study Day 15): 100%
- Survived Animals in % ([1]; Study Day 16): 100%
- Survived Animals in % ([1]; Study Day 17): 100%
- Survived Animals in % ([1]; Study Day 18): 100%
- Survived Animals in % ([1]; Study Day 19): 100%
- Survived Animals in % ([1]; Study Day 20): 100%
- Survived Animals in % ([1]; Study Day 21): 100%
- Survived Animals in % ([1]; Study Day 22): 100%
- Survived Animals in % ([1]; Study Day 23): 100%
- Survived Animals in % ([1]; Study Day 24): 88%
- Survived Animals in % ([1]; Study Day 25): 63%
- Survived Animals in % ([1]; Study Day 28): 50%
- rotarod performance time compared with vehicle control group [2]: significantly decreased
- mean Von Frey force required for withdrawal ([3]; Baseline): 57.88 g
- mean Von Frey force required for withdrawal ([3]; Day 13 pre dosing): 9.81 g
- mean Von Frey force required for withdrawal ([3]; Day 14 1 hour post dosing): 45.13**** g
- mean Von Frey force required for withdrawal ([3]; Day 14 2 hours post dosing): 55.75±2.78 g and 55.75**** g
- mean Von Frey force required for withdrawal ([3]; Day 15 24 hours post dosing): 19.56 g
- effect on neuropathic pain compared to the vehicle group (Von Frey test) ([3]; 150 mg/kg, 1 hour and 2 hour post dosing on study day 14): statistically significantly reduced the neuropathic pain
- Mean group body weight ([4]; Baseline): 223.38 g
- Mean group body weight ([4]; Day 1): 235.25 g
- Mean group body weight (% from baseline) ([4]; Day 1): 105.31%
- Mean group body weight ([4]; Day 3): 237.50 g
- Mean group body weight (% from baseline) ([4]; Day 3): 106.31%
- Mean group body weight ([4]; Day 5): 258.13 g
- Mean group body weight (% from baseline) ([4]; Day 5): 115.54%
- Mean group body weight ([4]; Day 7): 269.25 g
- Mean group body weight (% from baseline) ([4]; Day 7): 120.50%
- Mean group body weight ([4]; Day 9): 278.75 g
- Mean group body weight (% from baseline) ([4]; Day 9): 124.74%
- Mean group body weight ([4]; Day 11): 287.63 g
- Mean group body weight (% from baseline) ([4]; Day 11): 128.71%
- Mean group body weight ([4]; Day 13): 289.50 g
- Mean group body weight (% from baseline) ([4]; Day 13): 129.56%
- Mean group body weight ([4]; Day 16): 281.00 g
- Mean group body weight (% from baseline) ([4]; Day 16): 125.68%
- Mean group body weight ([4]; Day 20): 274.38 g
- Mean group body weight (% from baseline) ([4]; Day 20): 122.79%
- Mean group body weight ([4]; Day 23): 263.38 g
- Mean group body weight (% from baseline) ([4]; Day 23): 117.94%
- Mean group body weight ([4]; Day 26): 247.75 g
- Mean group body weight (% from baseline) ([4]; Day 26): 113.52%
